According to patent US20250073241A1, “Combination Therapies Using PRMT5 Inhibitors for the Treatment of Cancer” (MIRATI THERAPEUTICS, INC., priority 2021, published 2025):

Legend:
Type in all cases: in vivo, mice
H1650 xenograft tumors = test: H1650 lung tumor xenograft, Example 5; conditions: Palbociclib 130 mg/kg PO QD
Procedure: (§1) The compound of the disclosure was evaluated in several different lung tumor xenograft models: HCC4006, SW1573 PRMT5-044, H1650, and A549 PRMT-034. […] 2021, incorporated by reference in its entirety.

[1] = test system: A549 PRMT-034 xenograft tumors; test: A549 PRMT-034 lung tumor xenograft, Example 6; conditions: Palbociclib 130 mg/kg PO QD
Procedure: as §1

HCC4006 xenograft tumors = test: HCC4006 lung tumor xenograft, Example 3; conditions: Palbociclib 130 mg/kg PO QD
Procedure: as §1

MKN45 xenograft tumors = test: MKN45 gastric tumor xenograft, Example 9; conditions: Palbociclib 130 mg/kg PO QD
Procedure: Immunodeficient female nu/nu mice were implanted with 5×10^6 LU99 lung cancer cells in 50% Matrigel. Tumors were measured using calipers until they reached approximately 150-200 mm^3. Animals were randomized to receive A) vehicle (0.5% methylcellulose (4000 cps)/0.2% Tween80 in water), B) a PRMT5 inhibitor, C) CDK4/6 inhibitor, or D) the PRMT5 inhibitor and CDK4/6 inhibitor, all administered orally (PO) for 21 days. Tumor volume was measured twice a week (n=5/treatment group). Average tumor volume and standard error of the mean was calculated and plotted at each study day in GraphPad.

[2] = test system: PANC-05-04 xenograft tumors; test: PANC-05-04 pancreatic tumor xenograft, Example 7; conditions: Palbociclib 130 mg/kg PO QD
Procedure: (§2) The compound of the disclosure was evaluated in a couple of different pancreatic tumor xenograft models: PANC-05-04 and BXPC-3.

BXPC-3 xenograft tumors = test: BXPC-3 pancreatic tumor xenograft, Example 8; conditions: Palbociclib 130 mg/kg PO QD
Procedure: as §2

[3] = test system: KRAS^G12C and CDKN2A/MTAP^DEL lung tumor xenograft LU99 model; test: LU99 lung tumor xenograft, Example 2 (MRTX7477 / palbociclib); conditions: palbociclib 130 mg/kg PO QD
Text: (§3) 2021, incorporated by reference in its entirety.

[4] = test system: KRAS^G12C and CDKN2A/MTAP^DEL lung tumor xenograft LU99 model; test: LU99 lung tumor xenograft, Example 1 (MRTX9768 / palbociclib); conditions: palbociclib 130 mg/kg PO QD
Procedure: as §3
The CDK4/6 inhibitor used in this example was palbociclib administered at 130mg/kg once a day (QD). Palbociclib is 6-acetyl-8-cyclopentyl-5-methyl-2-[(5-piperazin-1-ylpyridin-2-yl)amino]pyrido[2,3-d]pyrimidin-7-one, and is sold as Ibrance® available from Pfizer Inc., New York, New York.

[5] = Day 0, MRTX1719 100 mg/kg PO QD
[6] = Day 3, MRTX1719 100 mg/kg PO QD
[7] = Day 7, MRTX1719 100 mg/kg PO QD
[8] = Day 10, MRTX1719 100 mg/kg PO QD
[9] = Day 14, MRTX1719 100 mg/kg PO QD
[10] = Day 17, MRTX1719 100 mg/kg PO QD
[11] = Day 20, MRTX1719 100 mg/kg PO QD
[12] = Day 1, MRTX1719 100 mg/kg PO QD
[13] = Day 8, MRTX1719 100 mg/kg PO QD
[14] = Day 12, MRTX1719 100 mg/kg PO QD
[15] = Day 15, MRTX1719 100 mg/kg PO QD
[16] = Day 19, MRTX1719 100 mg/kg PO QD
[17] = Day 22, MRTX1719 100 mg/kg PO QD
[18] = Day 26, MRTX1719 100 mg/kg PO QD
[19] = Day 29, MRTX1719 100 mg/kg PO QD
[20] = Day 34, MRTX1719 100 mg/kg PO QD
[21] = Day 2, MRTX1719 100 mg/kg PO QD
[22] = Day 5, MRTX1719 100 mg/kg PO QD
[23] = Day 9, MRTX1719 100 mg/kg PO QD
[24] = Day 16, MRTX1719 100 mg/kg PO QD
[25] = Day 13, MRTX1719 50 mg/kg PO QD
[26] = Day 16, MRTX1719 50 mg/kg PO QD
[27] = Day 20, MRTX1719 50 mg/kg PO QD

Cn1ncc(-c2ccc3c(=O)[nH]nc(CN)c3c2)c1-c1c(F)c(Cl)cc(OC2CC2)c1C#N [MRTX1719, (2M)-2-(4-(4-(aminomethyl)-1-oxo-1,2-dihydrophthalazin-6-yl)-1-methyl-1H-pyrazol-5-y1)-4-chloro-6-cyclopropoxy-3-fluorobenzonitrile]
Tumor Volume, Mean (H1650 xenograft tumors; [5]): 146 mm^3
Tumor Volume, Mean (H1650 xenograft tumors; [6]): 231 mm^3
Tumor Volume, Mean (H1650 xenograft tumors; [7]): 471 mm^3
Tumor Volume, Mean (H1650 xenograft tumors; [8]): 599 mm^3
Tumor Volume, Mean (H1650 xenograft tumors; [9]): 625 mm^3
Tumor Volume, Mean (H1650 xenograft tumors; [10]): 711 mm^3
Tumor Volume, Mean (H1650 xenograft tumors; [11]): 635 mm^3
Tumor Volume, Mean [1, 12]: 118 mm^3
Tumor Volume, Mean [1, 13]: 169 mm^3
Tumor Volume, Mean [1, 14]: 200 mm^3
Tumor Volume, Mean [1, 15]: 210 mm^3
Tumor Volume, Mean [1, 16]: 214 mm^3
Tumor Volume, Mean [1, 17]: 221 mm^3
Tumor Volume, Mean [1, 18]: 263 mm^3
Tumor Volume, Mean [1, 19]: 288 mm^3
Tumor Volume, Mean [1, 20]: 325 mm^3
Tumor Volume, Mean (HCC4006 xenograft tumors; [5]): 126 mm^3
Tumor Volume, Mean (HCC4006 xenograft tumors; [21]): 150 mm^3
Tumor Volume, Mean (HCC4006 xenograft tumors; [22]): 159 mm^3
Tumor Volume, Mean (HCC4006 xenograft tumors; [23]): 154 mm^3
Tumor Volume, Mean (HCC4006 xenograft tumors; [14]): 156 mm^3
Tumor Volume, Mean (HCC4006 xenograft tumors; [24]): 159 mm^3
Tumor Volume, Mean (HCC4006 xenograft tumors; [11]): 78 mm^3
Tumor Volume, Mean (MKN45 xenograft tumors; [5]): 105 mm^3
Tumor Volume, Mean (MKN45 xenograft tumors; [6]): 165 mm^3
Tumor Volume, Mean (MKN45 xenograft tumors; [7]): 207 mm^3
Tumor Volume, Mean (MKN45 xenograft tumors; [8]): 221 mm^3
Tumor Volume, Mean (MKN45 xenograft tumors; [9]): 214 mm^3
Tumor Volume, Mean (MKN45 xenograft tumors; [10]): 230 mm^3
Tumor Volume, Mean (MKN45 xenograft tumors; [11]): 221 mm^3
Tumor Volume, Mean [2, 5]: 149 mm^3
Tumor Volume, Mean [2, 6]: 382 mm^3
Tumor Volume, Mean [2, 7]: 519 mm^3
Tumor Volume, Mean [2, 8]: 559 mm^3
Tumor Volume, Mean [2, 9]: 563 mm^3
Tumor Volume, Mean [2, 10]: 624 mm^3
Tumor Volume, Mean [2, 11]: 603 mm^3
Tumor Volume, Mean (BXPC-3 xenograft tumors; Day 0, MRTX1719 50 mg/kg PO QD): 122 mm^3
Tumor Volume, Mean (BXPC-3 xenograft tumors; Day 3, MRTX1719 50 mg/kg PO QD): 174 mm^3
Tumor Volume, Mean (BXPC-3 xenograft tumors; Day 6, MRTX1719 50 mg/kg PO QD): 206 mm^3
Tumor Volume, Mean (BXPC-3 xenograft tumors; Day 9, MRTX1719 50 mg/kg PO QD): 310 mm^3
Tumor Volume, Mean (BXPC-3 xenograft tumors; [25]): 359 mm^3
Tumor Volume, Mean (BXPC-3 xenograft tumors; [26]): 372 mm^3
Tumor Volume, Mean (BXPC-3 xenograft tumors; [27]): 368 mm^3

CC(=O)c1c(C)c2cnc(Nc3ccc(N4CCNCC4)cn3)nc2n(C2CCCC2)c1=O [palbociclib, 6-acetyl-8-cyclopentyl-5-methyl-2-[(5-piperazin-1-ylpyridin-2-yl)amino]pyrido[2,3-d]pyrimidin-7-one]
Tumor Volume, Mean (H1650 xenograft tumors; [5]): 147 mm^3
Tumor Volume, Mean (H1650 xenograft tumors; [6]): 268 mm^3
Tumor Volume, Mean (H1650 xenograft tumors; [7]): 356 mm^3
Tumor Volume, Mean (H1650 xenograft tumors; [8]): 493 mm^3
Tumor Volume, Mean (H1650 xenograft tumors; [9]): 480 mm^3
Tumor Volume, Mean (H1650 xenograft tumors; [10]): 589 mm^3
Tumor Volume, Mean (H1650 xenograft tumors; [11]): 743 mm^3
Tumor Volume, Mean [1, 12]: 118 mm^3
Tumor Volume, Mean [1, 22]: 134 mm^3
Tumor Volume, Mean [1, 13]: 155 mm^3
Tumor Volume, Mean [1, 14]: 177 mm^3
Tumor Volume, Mean [1, 15]: 189 mm^3
Tumor Volume, Mean [1, 16]: 179 mm^3
Tumor Volume, Mean [1, 17]: 186 mm^3
Tumor Volume, Mean [1, 18]: 220 mm^3
Tumor Volume, Mean [1, 19]: 255 mm^3
Tumor Volume, Mean [1, 20]: 263 mm^3
Tumor Volume ([3]; Day 1, MRTX7477 200 mg/kg PO BID): 209.8 mm^3
Tumor Volume ([3]; Day 5, MRTX7477 200 mg/kg PO BID): 215.9 mm^3
Tumor Volume ([3]; Day 8, MRTX7477 200 mg/kg PO BID): 277.3 mm^3
Tumor Volume ([3]; Day 12, MRTX7477 200 mg/kg PO BID): 359.4 mm^3
Tumor Volume ([3]; Day 15, MRTX7477 200 mg/kg PO BID): 413.5 mm^3
Tumor Volume ([3]; Day 19, MRTX7477 200 mg/kg PO BID): 675.9 mm^3
Tumor Volume ([3]; Day 21, MRTX7477 200 mg/kg PO BID): 827.0 mm^3
Tumor Volume ([3]; Day −2, MRTX7477 200 mg/kg PO BID): 133.4 mm^3
Tumor Volume, Mean (HCC4006 xenograft tumors; [5]): 127 mm^3
Tumor Volume, Mean (HCC4006 xenograft tumors; [21]): 155 mm^3
Tumor Volume, Mean (HCC4006 xenograft tumors; [22]): 143 mm^3
Tumor Volume, Mean (HCC4006 xenograft tumors; [23]): 117 mm^3
Tumor Volume, Mean (HCC4006 xenograft tumors; [14]): 115 mm^3
Tumor Volume, Mean (HCC4006 xenograft tumors; [24]): 111 mm^3
Tumor Volume, Mean (HCC4006 xenograft tumors; [11]): 100 mm^3
Tumor Volume, Mean (MKN45 xenograft tumors; [5]): 106 mm^3
Tumor Volume, Mean (MKN45 xenograft tumors; [6]): 158 mm^3
Tumor Volume, Mean (MKN45 xenograft tumors; [7]): 236 mm^3
Tumor Volume, Mean (MKN45 xenograft tumors; [8]): 264 mm^3
Tumor Volume, Mean (MKN45 xenograft tumors; [9]): 330 mm^3
Tumor Volume, Mean (MKN45 xenograft tumors; [10]): 434 mm^3
Tumor Volume, Mean (MKN45 xenograft tumors; [11]): 474 mm^3
Tumor Volume, Mean [2, 5]: 149 mm^3
Tumor Volume, Mean [2, 6]: 319 mm^3
Tumor Volume, Mean [2, 7]: 365 mm^3
Tumor Volume, Mean [2, 8]: 378 mm^3
Tumor Volume, Mean [2, 9]: 341 mm^3
Tumor Volume, Mean [2, 10]: 391 mm^3
Tumor Volume, Mean [2, 11]: 350 mm^3
Tumor Volume, Mean (BXPC-3 xenograft tumors; Day 0, MRTX1719 50 mg/kg PO QD): 122 mm^3
Tumor Volume, Mean (BXPC-3 xenograft tumors; Day 3, MRTX1719 50 mg/kg PO QD): 162 mm^3
Tumor Volume, Mean (BXPC-3 xenograft tumors; Day 6, MRTX1719 50 mg/kg PO QD): 174 mm^3
Tumor Volume, Mean (BXPC-3 xenograft tumors; Day 9, MRTX1719 50 mg/kg PO QD): 187 mm^3
Tumor Volume, Mean (BXPC-3 xenograft tumors; [25]): 195 mm^3
Tumor Volume, Mean (BXPC-3 xenograft tumors; [26]): 190 mm^3
Tumor Volume, Mean (BXPC-3 xenograft tumors; [27]): 193 mm^3
Tumor Volume, Mean ([4]; Day 0, MRTX9768 100 mg/kg PO BID): 184.39 mm^3
Tumor Volume, Mean ([4]; Day 3, MRTX9768 100 mg/kg PO BID): 247.02 mm^3
Tumor Volume, Mean ([4]; Day 7, MRTX9768 100 mg/kg PO BID): 355.77 mm^3
Tumor Volume, Mean ([4]; Day 10, MRTX9768 100 mg/kg PO BID): 482.60 mm^3
Tumor Volume, Mean ([4]; Day 14, MRTX9768 100 mg/kg PO BID): 731.56 mm^3
Tumor Volume, Mean ([4]; Day 17, MRTX9768 100 mg/kg PO BID): 914.41 mm^3
Tumor Volume, Mean ([4]; Day 21, MRTX9768 100 mg/kg PO BID): 1148.44 mm^3
